Results on 28 molecules are retold here after patent publication US20100056524A1, “Compound” (priority 2008, published 2010).

For this experiment, the target named is T1, TBK1 (Homo sapiens, UniProt Q9UHD2).
T1 construct: All protein kinases were of human origin and encoded full length proteins, unless indicated otherwise; His6; made in house; host or cells: insect Sf21 cells
T1 sequence (Q9UHD2 1-729): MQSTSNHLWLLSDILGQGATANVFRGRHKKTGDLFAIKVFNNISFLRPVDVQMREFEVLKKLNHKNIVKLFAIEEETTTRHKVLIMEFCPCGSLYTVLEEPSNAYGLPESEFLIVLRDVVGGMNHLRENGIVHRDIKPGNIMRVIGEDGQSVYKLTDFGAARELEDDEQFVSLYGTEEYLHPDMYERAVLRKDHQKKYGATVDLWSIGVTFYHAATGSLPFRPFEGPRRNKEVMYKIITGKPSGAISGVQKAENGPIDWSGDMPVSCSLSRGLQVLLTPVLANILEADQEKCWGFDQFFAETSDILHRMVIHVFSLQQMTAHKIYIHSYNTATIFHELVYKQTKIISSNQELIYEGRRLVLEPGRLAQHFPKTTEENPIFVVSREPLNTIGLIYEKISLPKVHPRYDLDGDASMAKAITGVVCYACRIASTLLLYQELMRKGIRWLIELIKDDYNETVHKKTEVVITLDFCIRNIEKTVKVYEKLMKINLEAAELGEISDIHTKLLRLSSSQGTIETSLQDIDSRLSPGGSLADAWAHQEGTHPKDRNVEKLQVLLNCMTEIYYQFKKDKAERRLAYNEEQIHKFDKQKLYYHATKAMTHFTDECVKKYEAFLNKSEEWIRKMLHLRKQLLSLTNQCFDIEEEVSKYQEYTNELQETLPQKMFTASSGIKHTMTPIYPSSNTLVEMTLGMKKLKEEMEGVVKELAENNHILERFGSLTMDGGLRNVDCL
The experiment in a line: TBK1 protein kinase assay ([γ-33P]ATP, P81 filterplates). In kind it is biochemical. Particulars: 50 μM ATP; read-out: Potency (TBK1 IC50 potency score). The method, boiled down: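 Human TBK1 assayed for 30 min with peptide substrate (300 μM), 50 μM [γ-33P]ATP and 10 mM magnesium acetate in 50 mM Tris/HCl pH 7.5, 0.1 mM EGTA, 0.1% 2-mercaptoethanol. Stopped with orthophosphoric acid and counted on P81 filters. IC50 from 10 compound concentrations.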

Molecules are shown by their SMILES. Structures can show the parent of a compound that is named as a salt.

`O=C(NCCCNc1nc(Nc2cccnc2)ncc1C1CC1)C1CCC1` [Example 65, Cyclobutanecarboxylic acid {3-[5-cyclopropyl-2-(pyridin-3-ylamino)-pyrimidin-4-ylamino]-propyl}-amide]: the IC50 was less than 100 nM.
The figure for `O=C(NCCCNc1nc(Nc2ccc3ncccc3c2)ncc1C1CC1)C1CCC1` [Example 191, Cyclobutanecarboxylic acid {3-[5-cyclopropyl-2-(quinolin-6-ylamino)-pyrimidin-4-ylamino]-propyl}-amide] is less than 100 nM; for `CN1CCN(CCOc2ccc(Nc3ncc(C4CC4)c(NCCCNC(=O)C4CCC4)n3)cn2)CC1` [Example 196, Cyclobutanecarboxylic acid [3-(5-cyclopropyl-2-{6-[2-(4-methyl-piperazin-1-yl)-ethoxy]-pyridin-3-ylamino}-pyrimidin-4-ylamino)-propyl]-amide] it is less than 100 nM; for `COC(=O)c1cccc(Nc2ncc(C3CC3)c(NCCCNC(=O)c3cccs3)n2)c1` [Example 33, 3-(5-Cyclopropyl-4-{3-[(thiophene-2-carbonyl)-amino]-propylamino}-pyrimidin-2-ylamino)-benzoic acid methyl ester trifluoroacetic acid salt] it is 100 to 1000 nM.
The figure for `O=C(NCCCNc1nc(Nc2cccc(F)c2)ncc1C1CC1)C1CCCCC1` [Example 3, Cyclohexanecarboxylic acid {3-[5-cyclopropyl-2-(3-fluoro-phenylamino)-pyrimidin-4-ylamino]-propyl}-amide trifluoroacetic acid salt] is less than 100 nM; for `Cc1n[nH]c(C)c1C(=O)NCCCNc1nc(Nc2cccc(F)c2)ncc1C1CC1` [Example 13, 3,5-Dimethyl-1H-pyrazole-4-carboxylic acid {3-[5-cyclopropyl-2-(3-fluoro-phenylamino)-pyrimidin-4-ylamino]-propyl}-amide] it is 1000 to 10000 nM.
In the case of `CN1CCc2cc(Nc3ncc(C4CC4)c(NCCCNC(=O)C4CCC4)n3)ccc2C1` [Example 199, Cyclobutanecarboxylic acid {3-[5-cyclopropyl-2-(2-methyl-1,2,3,4-tetrahydro-isoquinolin-6-ylamino)-pyrimidin-4-ylamino]-propyl}-amide] it was less than 100 nM.
`CCCC(=O)NCCCNc1nc(Nc2cccc(F)c2)ncc1C1CC1` [Example 108]: the IC50 was less than 100 nM.
In the case of `CC(=O)Nc1cccc(Nc2ncc(C3CC3)c(NCCCN3CCCC3=O)n2)c1` [Example 39, N-(3-{5-Cyclopropyl-4-[3-(2-oxo-pyrrolidin-1-yl)-propylamino]-pyrimidin-2-ylamino}-phenyl)-acetamide trifluoroacetate salt] it was 100 to 1000 nM.
As to `O=C(NCCCNc1nc(Nc2ccc(-c3cncnc3)nc2)ncc1C1CC1)C1CCC1` [Example 116, Cyclobutanecarboxylic acid {3-[5-cyclopropyl-2-(6-pyrimidin-5-yl-pyridin-3-ylamino)-pyrimidin-4-ylamino]-propyl}-amide], the IC50 was less than 100 nM.
In the case of `O=C(NCCCNc1nc(Nc2cccnc2)ncc1C1CC1)C1CCCC1` [Example 66, Cyclopentanecarboxylic acid {3-[5-cyclopropyl-2-(pyridin-3-ylamino)-pyrimidin-4-ylamino]-propyl}-amide] it was less than 100 nM; in that of `Cn1ncc2cc(Nc3ncc(C4CC4)c(NCCCNC(=O)C4CCC4)n3)ccc21` [Example 137, Cyclobutanecarboxylic acid {3-[5-cyclopropyl-2-(1-methyl-1H-indazol-5-ylamino)-pyrimidin-4-ylamino]-propyl}-amide], less than 100 nM; in that of `O=C(NCCCNc1nc(Nc2ccc(-c3cnco3)cc2)ncc1C1CC1)C1CCC1` [Example 181, Cyclobutanecarboxylic acid {3-[5-cyclopropyl-2-(4-oxazol-5-yl-phenylamino)-pyrimidin-4-ylamino]-propyl}-amide], less than 100 nM.
The figure for `O=C(NCCCNc1nc(Nc2ccc(Cl)nc2)ncc1C1CC1)C1CCC1` [Example 99, Cyclobutanecarboxylic acid {3-[2-(6-chloro-pyridin-3-ylamino)-5-cyclopropyl-pyrimidin-4-ylamino]-propyl}-amide] is less than 100 nM.
In the case of `O=C(NCCCNc1nc(Nc2cccc(F)c2)ncc1C1CC1)c1ccn[nH]1` [Example 7, 2H-Pyrazole-3-carboxylic acid {3-[5-cyclopropyl-2-(3-fluoro-phenylamino)-pyrimidin-4-ylamino]-propyl}-amide trifluoroacetic acid salt] it was 100 to 1000 nM.
Take `O=C(NCCCNc1nc(Nc2ccc(Br)nc2)ncc1C1CC1)C1CCC1` [Example 97, Cyclobutanecarboxylic acid {3-[2-(6-bromo-pyridin-3-ylamino)-5-cyclopropyl-pyrimidin-4-ylamino]-propyl}-amide]: the IC50 was less than 100 nM.
Take `O=C(NCCCNc1nc(Nc2ccc3c(cnn3C3CC3)c2)ncc1C1CC1)C1CCC1` [Example 210, Cyclobutanecarboxylicacid{3-[5-cyclopropyl-2-(1-cyclopropyl-1H-indazol-5-ylamino)-pyrimidin-4-ylamino]-propyl}-amide]: the IC50 is less than 100 nM.
In the case of `CN(C)CCCN(C)C(=O)c1cccc(Nc2ncc(C3CC3)c(NCCCNC(=O)C3CCC3)n2)c1` [Example 79, 3-{4-[3-(Cyclobutanecarbonyl-amino)-propylamino]-5-cyclopropyl-pyrimidin-2-ylamino}-N-(3-dimethylamino-propyl)-N-methyl-benzamide] it was less than 100 nM; in that of `Nc1cccc(Nc2ncc(C3CC3)c(NCCCNC(=O)c3cccs3)n2)c1` [Example 69, Thiophene-2-carboxylic acid {3-[2-(3-amino-phenylamino)-5-cyclopropyl-pyrimidin-4-ylamino]-propyl}-amide], less than 100 nM.
The figure for `Cn1cnc2cc(Nc3ncc(C4CC4)c(NCCCNC(=O)C4CCC4)n3)cnc21` [Example 198, Cyclobutanecarboxylic acid {3-[5-cyclopropyl-2-(3-methyl-3H-imidazo[4,5-b]pyridin-6-ylamino)-pyrimidin-4-ylamino]-propyl}-amide] is less than 100 nM.
The figure for `N#CCc1cccc(Nc2ncc(C3CC3)c(NCCCNC(=O)C3CCC3)n2)c1` [Example 136, Cyclobutanecarboxylic acid {3-[2-(3-cyanomethyl-phenylamino)-5-cyclopropyl-pyrimidin-4-ylamino]-propyl}-amide] is less than 100 nM; for `CN(C)C1CCN(C(=O)Cc2cccc(Nc3ncc(C4CC4)c(NCCCNC(=O)C4CCC4)n3)c2)CC1` [Example 128, Cyclobutanecarboxylic acid [3-(5-cyclopropyl-2-{3-[2-(4-dimethylamino-piperidin-1-yl)-2-oxo-ethyl]-phenylamino}-pyrimidin-4-ylamino)-propyl]-amide] it is less than 100 nM.
`CNC(=O)c1ccc(Nc2ncc(C3CC3)c(NCCCNC(=O)C3CCC3)n2)cc1` [Example 164, 4-{4-[3-(Cyclobutanecarbonyl-amino)-propylamino]-5-cyclopropyl-pyrimidin-2-ylamino}-N-methyl-benzamide]: the IC50 was less than 100 nM.
Turning to `CN(CCCNC(=O)C1CCC1)c1nc(Nc2cccc(F)c2)ncc1C1CC1` [Example 106, Cyclobutanecarboxylic acid (3-{[5-cyclopropyl-2-(3-fluoro-phenylamino)-pyrimidin-4-yl]-methyl-amino}-propyl)-amide], the IC50 lay within 100 to 1000 nM.
Turning to `O=C(NCCCNc1nc(Nc2ccc(NCCN3CCOCC3)nc2)ncc1C1CC1)C1CCC1` [Example 158, Cyclobutanecarboxylic acid (3-{5-cyclopropyl-2-[6-(2-morpholin-4-yl-ethylamino)-pyridin-3-ylamino]-pyrimidin-4-ylamino}-propyl)-amide], the IC50 was less than 100 nM.
The figure for `O=C(NCCCNc1nc(Nc2ccc3ncsc3c2)ncc1C1CC1)c1cccs1` [Example 37, Thiophene-2-carboxylic acid {3-[2-(benzothiazol-6-ylamino)-5-cyclopropyl-pyrimidin-4-ylamino]-propyl}-amide. Hydrochloride salt] is less than 100 nM; for `O=C(NCCCNc1nc(Nc2ccc(CN3CCCC(F)(F)C3)nc2)ncc1C1CC1)C1CCC1` [Example 157, Cyclobutanecarboxylic acid (3-{5-cyclopropyl-2-[6-(3,3-difluoro-piperidin-1-ylmethyl)-pyridin-3-ylamino]-pyrimidin-4-ylamino}-propyl)-amide] it is less than 100 nM; for `O=C(NCCCNc1nc(Nc2ccccc2)ncc1C1CC1)c1cccs1` [Example 57, Thiophene-2-carboxylic acid [3-(5-cyclopropyl-2-phenylamino-pyrimidin-4-ylamino)-propyl]-amide] it is 100 to 1000 nM.
